Source: patent publication US20050038022A1, “Method for treatment of cancer and compositions for use therein” (Unisearch Limited, priority 2001, published 2005)

How the values were obtained:
[1] = test system: HepG2, SKHEP-1 and Hep 3B; assay: Albendazole/ABS proliferation test, liver cancer cells; type: cell-based, human; settings: 5 days, 0.5% DMSO
Experimental: (§1) In order to be able to test ABS, a proper solvent had to be found. […] Therefore to allow direct comparison between the 2 compounds, all subsequent experiments were run using 0.5% DMSO for both ABS and albendazole. In the cell lines examined, albendazole produced very similar results to what we had previously reported for the drug in liver cancer cells.
(§2) Both albendazole and ABS were tested side by side against various cell lines as follows: • Liver—HepGZ Hep3B, SKHEP-1 • Colorectal—170, LOVO, HT-29 • Prostate—PC3, LNCap, Du145 • Leukeamic—HL60
(§3) Cells were treated with various concentrations of each compound for a period of 5 days.

C-170, LOVO and HT-29 = assay: Albendazole/ABS proliferation test, colorectal cell lines; type: cell-based; settings: C-170, LOVO and HT-29, 5 days, 0.5% DMSO
Experimental: as §1, §2, §3

PC3, LNCap and Du 145 = assay: Albendazole/ABS proliferation test, prostate cancer cells; type: cell-based, human; settings: PC3, LNCap and Du 145; ABS compared with albendazole
Experimental: as §1, §2, §3

[2] = test system: liver, colorectal, prostate and leukeamic cell lines; assay: Albendazole/ABS side by side in various cell lines (general); type: cell-based
Experimental: as §1, §2
The fist 9 cell lines were used to compare effectiveness and potency while, the last one was used to assess toxicity on bone marrow (as a rough guide).
as §3

Solubility in solvent = type: physicochemical
Excerpt: as §1

[3] = sulphoxide metabolite after oral albendazole, man; cited from earlier work

SMILES: CCC[S+]([O-])c1ccc2[nH]c(NC(=O)OC)nc2c1 (stereo not shown) [ABS, albendazole sulphoxide]
- proliferation of human liver cancer cells [1]: inhibit proliferation
- activity against colorectal cell lines (C-170, LOVO and HT-29): same sort of activity
- potency in inhibiting proliferation, metabolite versus drug (PC3, LNCap and Du 145): almost equipotent
- antiproliferative activity at 0.25 micromoles/L ([2]; 0.25 micromoles/L, 5 days): dramatically increasing
- effectiveness compared with parent drug ([2]; 10 different cell lines, earlier results, latest results cast doubt): as effective as the parent drug
- inhibition at 1 µM ([2]; 120 h, 1 micromoles/L, 5 days): ~100%
- concentration at which antiproliferative activity becomes evident ([2]; 5 days, 0.5% DMSO, in general): 0.01 µmol/L
- solubility in ethanol (Solubility in solvent): not soluble in ethanol
- peak plasma concentrations [3]: 200 to 300 ng/mL
- plasma half life [3]: 8 to 9 h
